Patent US10188710B2, “Regulatory T cell epitope and hepatitis C virus homolog” (Rhode Island Council on Postsecondary Education, priority 2013, dated 2019)
“Also recorded” adds a separate entry of the source.

Assays:
Type in all cases: cell-based, human
[1] = tested on: PBMCs derived from HCV-infected (Ab+VL+) patients; test: CD3+CD4+FoxP3+ cell induction in PBMC cultures from HCV-infected patients (flow cytometry); conditions: 10 μg/ml peptide, 5 days; for increase in CD3+CD4+FoxP3+ cells: PBMCs from Ab+VL+ patients, vs medium alone
Excerpt: (§1) HCV-seropositive subjects with persistent viremia (Ab^+VL^+), patients who spontaneously resolved infection (Ab^+VL^−) and HCV-seronegative, non-infected (Ab^−VL^−) individuals were recruited from the Rhode Island Adult Corrections Institution (ACI) to participate in this study. Recruitment methods and the population are described elsewhere. The Institutional Review Boards of the Miriam Hospital, Rhode Island Department of Corrections and Office of Human Research Protection approved this study. All HCV infected subjects included in these analyses were infected with HCV genotype 1a or 1b (Versant HCV genotype assay 2, Siemens Healthcare Diagnostics Inc.). Hartford Hospital Transplantation Research Laboratory (Hartford, Conn.) and the Cellular Mediated Immunology Core Laboratory at the University of Rhode Island (Providence, R.I.) performed HLA typing.
Cryopreserved PBMCs were thawed; suspended in HEPES-buffered RPMI1640 medium supplemented with 10% HuAB serum (Valley Biomedical, Winchester, Va.), glutamine, 100 U/ml penicillin and 100 μg/ml streptomycin; and rested overnight at 37° C. in a humidified, CO2 incubator. On the following day, the PBMCs were centrifuged and resuspended in fresh medium containing 5% HuAB serum; 1×10^6 cells/nil were transferred to deep, flat-bottom, non-treated 48-well plates. The peptide sequence indicated in the text was added (10 μg/ml final concentration) and the cells were incubated for 5 days. PBMCs cultured in the presence of medium with 0.1% DMSO served as a negative control. Half the spent medium was replaced on day 3. The cells were collected for analysis on day 5.
The cells collected after 5 days incubation were quantified and characterized in accordance with methods we described previously. Dye-conjugated mouse monoclonal antibodies specific for the following determinants were purchased from BioLegend (San Diego, Calif.) and used: CD3, CD4 (clone OKT4), CD8a (clone HIT8a); CD39 (clone A1), and CD304 (clone 14H4); anti-human CD25 (clone M-A251) and anti-human FoxP3 (clone 236a) were purchased BD Biosciences (San Jose, Calif.). Data were collected on a 4 laser (13 color capability) BD LSRII Flow Cytometer (BD Biosciences, San Jose, Calif.) and analyzed using FlowJo software (Tree Star, Inc., Ashland, Oreg.). All analyses were conducted using the appropriate isotype controls to correct for non-specific staining PBMCs were cultured in the presence of medium alone, 10 μg/ml HCV_G1_p7_794, or 10 μg/ml HCV_G1_NS4b_1941.
The results were analyzed using the SigmaStat statistics program (Aspire Software International). Individual means were compared using a non-paired Student's t test or a Mann-Whitney Rank Sum test.
The cells were collected after 5 days incubation and analyzed by flow cytometry (FIGS. 1A-1C). The CD3+CD4+FoxP3+ cells were further characterized by the expression of CD25 and CD39 (FIG. 1B). The gating scheme and representative analyses are shown.

[2] = tested on: CFSE-labeled Ab+VL+ PBMCs; test: CFSE proliferation assay with or without anti-CD3
Procedure: For proliferation assays, cells rested overnight were labeled with carboxyfluorescein diacetate, succinimidyl ester (CFSE: Life Technologies Corporation, Carlsbad, Calif.) prior to culture in the presence or absence of 30 ng/ml anti-CD3 monoclonal antibody (clone HIT3a; BioLegend, San Diego, Calif.) and 10 μg/ml HCV_G1_p7_794. Cell proliferation was evaluated by flow cytometric analysis according to the protocol provided by Life Technologies in which a loss in fluorescence intensity correlates directly with the extent of replication.
The hallmark of CD3^+CD4^+FoxP3^+ Treg cells is suppressor activity. CSFE-labeled, Ab^+VL^+ PBMCs were cultured with medium alone or medium that contained 30 ng/ml anti-CD3, 10 μg/ml HCV_G1_p7_794 or a combination of anti-CD3 and HCV_G1_p7_794. After 5 days incubation, the cells were collected and proliferation the total (FIG. 3BA) and CD3^+CD4^+ (FIG. 3B) PBMC populations was estimated by flow cytometry. Data were obtained in a single experiment representative of the results obtained for PBMCs derived from six HCV-infected patients.

[3] = tested on: PBMCs derived from non-infected (Ab-VL-) individuals; test: CD3+CD4+FoxP3+ cell induction in PBMC cultures from non-infected individuals (flow cytometry); conditions: 10 μg/ml peptide, 5 days
Excerpt: as §1, with “typing. […]” for “typing.”
The cells collected after 5 days incubation were quantified and characterized in accordance with methods we described previously. […] Data were collected on a 4 laser (13 color capability) BD LSRII Flow Cytometer (BD Biosciences, San Jose, Calif.) and analyzed using FlowJo software (Tree Star, Inc., Ashland, Oreg.). […]
The results were analyzed using the SigmaStat statistics program (Aspire Software International). […]

Sequence	CD25 and CD39 expression by induced CD3+CD4+FoxP3+ cells ([1]; Ab+VL+ PBMCs)	CD304 (neuropilin) expression by CD4+FoxP3+ cells ([1]; Ab+VL+ PBMCs)	increase in CD3+CD4+FoxP3+ cells [1]	effect on proliferative response to anti-CD3 monoclonal antibody ([2]; 30 ng/ml anti-CD3 plus 10 μg/ml peptide, 5 days, total or CD3+CD4+ population)	effect on proliferation of CD3+CD4+ T cells ([2]; 10 μg/ml peptide alone, no anti-CD3, 5 days)	increase in CD3+CD4+FoxP3+ cells [3]	increase in CD3+CD4+FoxP3+ cells ([3]; vs medium alone)
WPLLLLLLALPQRAYAQ (Hepatitis C virus) [HCV_G1_p7_794]	expressed both CD25; also recorded: vast majority of these cells expressed CD39	vast majority of CD4^+FoxP3^+ cells among Ab^+VL^+ PBMCs cultured in the presence of HCV_G1_p7_794 were CD304-negative; also recorded: only a minority	marked increase	reproducible, albeit slight, decrease	no effect		
AARVTQILSSL TITQLLKRLHQWI [HCV_G1_NS4b_1941, reference compound]			failed to promote an increase				
ISGIQYLAGLSTLPGNPA [HCV_G1_NS4b_1769, reference compound]			failed to elicit a CD3+CD4+FoxP3+ cell response				
PLLLLLLSLPPRA [Human p7_794]			significant increase			three	significant increase
